Where two headings read alike, the source gives them in different places.
What was measured:
Format in all cases: cell-based
[1] = Cellular toxicity assay in HepG2 cells; conditions: human, HepG2 cells; read-out: Cytotoxicity; CC50 (μM) HepG2
Method: (§1) The toxicity of the compounds was assessed in Vero, human PBM, CEM (human lymphoblastoid), MT-2, and HepG2 cells, as described previously (see Schinazi R. F., Sommadossi J.-P., Saalmann V., Cannon D. L., Xie M.-Y., Hart G. C., Smith G. A. & Hahn E. F. Antimicrob. Agents Chemother. 1990, 34, 1061-67). Cycloheximide was included as positive cytotoxic control, and untreated cells exposed to solvent were included as negative controls. The cytotoxicity IC50 was obtained from the concentration-response curve using the median effective method described previously (see Chou T.-C. & Talalay P. Adv. Enzyme Regul. 1984, 22, 27-55; Belen'kii M. S. & Schinazi R. F. Antiviral Res. 1994, 25, 1-11).

wild type HBV = test: Anti-HBV assay in AD-38 cell line (HBV in culture supernatant); conditions: for EC50: read-out: Anti-HBV activity EC50; for EC90: read-out: Anti-HBV activity EC90
Method: The anti-HBV activity of the compounds was determined by treating the AD-38 cell line carrying wild type HBV under the control of tetracycline (see Ladner S. K., Otto M. J., Barker C. S., Zaifert K., Wang G. H., Guo J. T., Seeger C. & King R. W. Antimicrob. Agents Chemother. 1997, 41, 1715-20). Removal of tetracycline from the medium [Tet (−)] results in the production of HBV. The levels of HBV in the culture supernatant fluids from cells treated with the compounds were compared with that of the untreated controls. Control cultures with tetracycline [Tet (+)] were also maintained to determine the basal levels of HBV expression. 3TC was included as positive control.
The median effective concentrations (EC50) ranges of several of the compounds described herein against HBV are shown in Table 3: […]

[2] = Cellular toxicity assay in human PBM cells; conditions: human PBM cells, read-out: Cytotoxicity, CC50 (μM) PBM
Method: as §1

[3] = Hepatitis B virus, AD-38 cell line, Tet (-)

SMILES	CC50 [1] [µM]	EC50 (wild type HBV; [3]) [nM]	CC50 ([2]; human) [µM]	EC90 (wild type HBV; [3]) [nM]	EC50 (wild type HBV; Hepatitis B virus) [nM]	CC50 [2] [µM]	EC50 (wild type HBV; AD-38 cell line, Tet (-)) [nM]
Cc1c(C(=O)C(=O)NCc2cn(CCOCCOCCOCCn3cc(CNC(=O)C(=O)c4c(C)c(C(=O)Nc5ccc(F)c(F)c5)n(C)c4C)nn3)nn2)c(C)n(C)c1C(=O)Nc1ccc(F)c(F)c1 [Compound 94, 4,4′-(2,2′-((((((oxybis(ethane-2,1-diyl))bis(oxy))bis(ethane-2,1-diyl))bis(1H-1,2,3-triazole-1,4-diyl))bis(methylene))bis(azanediyl))bis(2-oxoacetyl))bis(N-(3,4-difluorophenyl)-1,3,5-trimethyl-1H-pyrrole-2-carboxamide)]	> 100	1 to 10	> 100	–	–	–	–
Cc1c(C(=O)C(=O)NCc2cn(CCOCCOCC(COCCOCCN=[N+]=[N-])(COCCOCCN=[N+]=[N-])COCCOCCn3cc(CNC(=O)C(=O)c4c(C)c(C(=O)Nc5ccc(F)c(F)c5)n(C)c4C)nn3)nn2)c(C)n(C)c1C(=O)Nc1ccc(F)c(F)c1 [Compound 108, 4,4′-(2,2′-((((8,8-bis((2-(2-azidoethoxy)ethoxy)methyl)-3,6,10,13-tetraoxapentadecane-1,15-diyl)bis(1H-1,2,3-triazole-1,4-diyl))bis(methylene))bis(azanediyl))bis(2-oxoacetyl))bis(N-(3,4-difluorophenyl)-1,3,5-trimethyl-1H-pyrrole-2-carboxamide)]	> 100	10 to 100	> 100	100 to 1000	–	–	–
C#CCn1c(C)c(C(=O)C(=O)NC(C)(C)C#C)c(C)c1C(=O)Nc1ccc(F)c(F)c1 [Compound 120, N-(3,4-Difluorophenyl)-3,5-dimethyl-4-(2-((2-methylbut-3-yn-2-yl)amino)-2-oxoacetyl)-1-(prop-2-yn-1-yl)-1H-pyrrole-2-carboxamide]	> 100	0.01 to 0.1	> 100	1 to 10	–	–	–
Cc1c(C(=O)C(=O)NCc2cn(CCOCCOCCn3cc(CNC(=O)C(=O)c4c(C)c(C(=O)Nc5ccc(F)c(F)c5)n(C)c4C)nn3)nn2)c(C)n(C)c1C(=O)Nc1ccc(F)c(F)c1 [Compound 89, 4,4′-(2,2′-(((((Ethane-1,2-diylbis(oxy))bis(ethane-2,1-diyl))bis(1H-1,2,3-triazole-1,4-diyl))bis (methylene))bis(azanediyl))bis(2-oxoacetyl))bis(N-(3,4-difluorophenyl)-1,3,5-trimethyl-1H-pyrrole-2-carboxamide)]	> 100	1000 to 10000	68	–	–	–	–
Cc1c(C(=O)C(=O)NCc2cn(CCOCCOCC(COCCOCCn3cc(CNC(=O)C(=O)c4c(C)c(C(=O)Nc5ccc(F)c(F)c5)n(C)c4C)nn3)COCCOCCn3cc(CNC(=O)C(=O)c4c(C)c(C(=O)Nc5ccc(F)c(F)c5)n(C)c4C)nn3)nn2)c(C)n(C)c1C(=O)Nc1ccc(F)c(F)c1 [Compound 122]	–	100 to 1000	–	–	–	–	–
Cc1c(C(=O)C(=O)NCc2cn(CCCCCCCCn3cc(CNC(=O)C(=O)c4c(C)c(C(=O)Nc5ccc(F)c(F)c5)n(C)c4C)nn3)nn2)c(C)n(C)c1C(=O)Nc1ccc(F)c(F)c1 [Compound 74, 4,4′-(2,2′-(((Octane-1,8-diylbis(1H-1,2,3-triazole-1,4-diyl))bis(methylene))bis(azanediyl))bis(2-oxoacetyl))bis(N-(3,4-difluorophenyl)-1,3,5-trimethyl-1H-pyrrole-2-carboxamide)]	> 100	0.1 to 1	> 100	1 to 10	–	–	–
Cc1c(C(=O)C(=O)NCc2cn(CCOCCOCC(COCCOCCN=[N+]=[N-])(COCCOCCn3cc(CNC(=O)C(=O)c4c(C)c(C(=O)Nc5ccc(F)c(F)c5)n(C)c4C)nn3)COCCOCCn3cc(CNC(=O)C(=O)c4c(C)c(C(=O)Nc5ccc(F)c(F)c5)n(C)c4C)nn3)nn2)c(C)n(C)c1C(=O)Nc1ccc(F)c(F)c1 [Compound 109]	> 100	100 to 1000	> 100	1000 to 10000	–	–	–
Nc1ccn([C@@H]2CS[C@H](CO)O2)c(=O)n1 [Compound 3TC, lamivudine, reference compound]	–	100 to 1000	–	1000 to 10000	–	–	–
Cc1c(C(=O)C(=O)NCc2cn(CCOCCn3cc(CNC(=O)C(=O)c4c(C)c(C(=O)Nc5ccc(F)c(F)c5)n(C)c4C)nn3)nn2)c(C)n(C)c1C(=O)Nc1ccc(F)c(F)c1 [Compound 85, 4,4′-(2,2′-((((oxybis(ethane-2,1-diyl))bis(1H-1,2,3-triazole-1,4-diyl))bis(methylene))bis(azanediyl))bis(2-oxoacetyl))bis(N-(3,4-difluorophenyl)-1,3,5-trimethyl-1H-pyrrole-2-carboxamide)]	–	1000 to 10000	–	–	–	–	–
CCOP(=O)(Cn1cc(CNC(=O)C(=O)c2c(C)c(C(=O)Nc3ccc(F)c(F)c3)n(C)c2C)nn1)OCC [Compound 68, Diethyl((4-((2-(5-((3,4-difluorophenyl)carbamoyl)-1,2,4-trimethyl-1H-pyrrol-3-yl)-2-oxoacetamido)methyl)-1H-1,2,3-triazol-1-yl)methyl) phosphonate]	> 100	–	–	–	100 to 1000	70	–
C#CCNC(=O)C(=O)c1c(C)c(C(=O)Nc2ccc(F)c(F)c2)n(CC#CC)c1C [Compound 119, 1-(But-2-yn-1-yl)-N-(3,4-difluorophenyl)-3,5-dimethyl-4-(2-oxo-2-(prop-2-yn-1-ylamino)acetyl)-1H-pyrrole-2-carboxamide]	> 100	–	> 100	–	10 to 100	–	–
Cc1c(C(=O)C(=O)NCc2cn(CCOCCOCC(COCCOCCn3cc(CNC(=O)C(=O)c4c(C)c(C(=O)Nc5ccc(F)c(F)c5)n(C)c4C)nn3)(COCCOCCn3cc(CNC(=O)C(=O)c4c(C)c(C(=O)Nc5ccc(F)c(F)c5)n(C)c4C)nn3)COCCOCCn3cc(CNC(=O)C(=O)c4c(C)c(C(=O)Nc5ccc(F)c(F)c5)n(C)c4C)nn3)nn2)c(C)n(C)c1C(=O)Nc1ccc(F)c(F)c1 [Compound 110]	> 100	100 to 1000	> 100	1000 to 10000	–	–	–
Cc1c(C(=O)C(=O)NCc2cn(CCOCCOCCOCCOCCOCCn3cc(CNC(=O)C(=O)c4c(C)c(C(=O)Nc5ccc(F)c(F)c5)n(C)c4C)nn3)nn2)c(C)n(C)c1C(=O)Nc1ccc(F)c(F)c1 [Compound 95, 4,4′-(2,2′-((((3,6,9,12,15-Pentaoxaheptadecane-1,17-diyl)bis(1H-1,2,3-triazole-1,4-diyl))bis (methylene))bis(azanediyl))bis(2-oxoacetyl))bis(N-(3,4-difluorophenyl)-1,3,5-trimethyl-1H-pyrrole-2-carboxamide)]	–	–	–	–	–	–	10 to 100
Cc1c(C(=O)C(=O)NCc2cn(CCCCCCCCCCn3cc(CNC(=O)C(=O)c4c(C)c(C(=O)Nc5ccc(F)c(F)c5)n(C)c4C)nn3)nn2)c(C)n(C)c1C(=O)Nc1ccc(F)c(F)c1 [Compound 77, 4,4′-(2,2′-(((decane-1,10-diylbis(1H-1,2,3-triazole-1,4-diyl))bis(methylene))bis(azanediyl))bis (2-oxoacetyl))bis(N-(3,4-difluorophenyl)-1,3,5-trimethyl-1H-pyrrole-2-carboxamide)]	> 100	1 to 10	> 100	100 to 1000	–	–	–
Cc1c(C(=O)C(=O)NCc2cn(CCCCCCn3cc(CNC(=O)C(=O)c4c(C)c(C(=O)Nc5ccc(F)c(F)c5)n(C)c4C)nn3)nn2)c(C)n(C)c1C(=O)Nc1ccc(F)c(F)c1 [Compound 71, 4,4′-(2,2′-(((Hexane-1,6-diylbis(1H-1,2,3-triazole-1,4-diyl))bis(methylene))bis(azanediyl))bis(2-oxoacetyl))bis(N-(3,4-difluorophenyl)-1,3,5-trimethyl-1H-pyrrole-2-carboxamide)]	> 100	100 to 1000	> 100	1000 to 10000	–	–	–

From US20230056135A1, “MONOMER AND MULTIMERIC ANTI-HBV AGENTS” (priority 2018, published 2023)
